# Measurements from patent publication US11548849B2, “Alcohol derivatives as KV7 potassium channel openers” (H. Lundbeck A/S, priority 2019, dated 2023).
# Target: T1, hKv7.2/hKv7.3 (Homo sapiens, UniProt O43525+O43526)
# T1 construct: P2A self-cleaving peptide (between Kv7.3 and Kv7.2; the remnant would stay on the upstream protein) (C); expressed in transfected cells
# Assay: Thallium influx assay for potassium channel activation
# Type: cell-based
# Settings: HEK-hKv7.2/hKv7.3 cells; FLIPR Potassium Assay kit; AUC readout normalized to a reference compound
# Experimental: A synthesized cDNA fragment encoding human Kv7.3 and human Kv7.2 separated by a P2A sequence was inserted into the pcDNA5/FRT/TO vector using the BamHI and XhoI restriction sites. The construct was then transfected into HEK Flp-In 293 cells using Lipofectamine2000. The transfected cells were grown for 48 hours in DMEM containing 10% (v/v) FBS and 1% PenStrep and subsequently maintained under selection in DMEM containing 10% (v/v) FBS, 1% PenStrep and 200 ug/mL Hygromycin B at 37° C. in a humidified atmosphere of 5% CO2.
# The thallium influx assay for potassium channel activation was performed analogously to a published procedure (C. D. Weaver, et al., J Biomol Screen 2004, 9, 671-677) using the FLIPR Potassium Assay kit (Molecular Devices). HEK-hKv7.2/hKv7.3 cells were plated onto 96-well, black-walled, clear-bottomed culture plates (Corning, Acton, Mass., USA) at a density of 80,000 cells/well (100 μl/well) if the cells were assayed the following day, or 40,000 cells/well (100 μl/well) if the cells were assayed two days after seeding.
# On the assay day, the medium was removed after which 50 uL/well of test compound diluted to 2× final concentration in HBSS containing 20 mM HEPES, and 50 uL/well of 2× dye load buffer were added. The cells were then incubated for 60 min at room temperature in the dark. Chloride-free stimulation buffer containing Tl^+ and K^+ at 5× final concentration (5× concentration: 5 mM in both cases) and test compound at 1× final concentration, were prepared during the incubation. The cells were then assayed in a FDSS7000EX Functional Drug Screening System (Hamamatsu). Following 60 sec of baseline fluorescence signal reading at 0.1 Hz, and 10 sec at 1 Hz, 25 uL/well of stimulation buffer were added and the fluorescence continuously measured for 50 sec at 1 Hz followed, by 4 min at 0.1 Hz. Compound effect was quantified using AUC as readout and normalized to a reference compound, which was included on each plate.
row,SMILES,EC50
1,"O=C(CC(O)C1CC(F)(F)C1)N[C@@H](COC(F)F)c1cccc(OC(F)F)c1 (single isomer, unassigned) [Example 5b]",4500 nM
2,"COC[C@H](NC(=O)C[C@](C)(O)C1(F)CC1)c1cccc(OC(F)(F)F)c1 (single isomer, unassigned) [Example 36a]",2700 nM
3,"CC(O)(CC(=O)N[C@@H](COC(F)F)c1cccc(OC(F)F)c1)CC(F)(F)F (single isomer, unassigned) [Example 12b]",6200 nM
4,"CC(C)(C)[C@@H](O)CC(=O)N[C@@H](CC(F)F)c1cccc(OC(F)F)c1 [Example 22, (S)—N—((S)-1-(3-(difluoromethoxy)phenyl)-3,3-difluoropropyl)-3-hydroxy-4,4-dimethylpentanamide]",4500 nM
5,"CCC1(C(O)CC(=O)N[C@@H](COC(F)F)c2cccc(OC(F)F)c2)CC1 (single isomer, unassigned) [Example 8a]",4800 nM
6,"O=C(CC(O)C1(C(F)(F)F)CC1)N[C@@H](COC(F)F)c1cccc(OC(F)F)c1 (single isomer, unassigned) [Example 3b]",2400 nM
7,"CCOC[C@H](NC(=O)CC(O)C(C)(C)C)c1cccc(OC(F)(F)F)c1 (single isomer, unassigned) [Example 2a]",10000 nM
8,"O=C(CC1(O)CC(F)(F)C1)N[C@@H](CCC(F)F)c1cccc(OC(F)F)c1 [Example 32, (S)-2-(3,3-difluoro-1-hydroxycyclobutyl)-N-(1-(3-(difluoromethoxy)phenyl)-4,4-difluorobutyl)acetamide]",2500 nM
9,"CC(O)(CC(=O)N[C@@H](COC(F)F)c1cccc(OC(F)(F)F)c1)C1(F)CC1 (single isomer, unassigned) [Example 10b]",4100 nM
10,"N#CC[C@H](NC(=O)CC1(O)CC(F)(F)C1)c1cccc(OC(F)(F)F)c1 [Example 34, (S)—N-(2-cyano-1-(3-(trifluoromethoxy)phenyl)ethyl)-2-(3,3-difluoro-1-hydroxycyclobutyl)acetamide]",2500 nM
11,"CC1(C)CC(C(O)CC(=O)N[C@@H](COC(F)F)c2cccc(OC(F)F)c2)C1 (single isomer, unassigned) [Example 15a]",3700 nM
12,"O=C(CC1(O)CC(F)(F)C1)N[C@@H](CC(F)F)c1cccc(OC(F)(F)F)c1 [Example 35, (S)—N-(3,3-difluoro-1-(3-(trifluoromethoxy)phenyl)propyl)-2-(3,3-difluoro-1-hydroxycyclobutyl)acetamide]",3500 nM
13,"CCC[C@H](NC(=O)CC1(O)CC(F)(F)C1)c1cccc(OC(F)F)c1 [Example 31, (S)-2-(3,3-difluoro-1-hydroxycyclobutyl)-N-(1-(3-(difluoromethoxy)phenyl)butyl)acetamide]",2600 nM
14,"CCC[C@H](NC(=O)CC(O)C1CC(F)(F)C1)c1cccc(OC(F)F)c1 (single isomer, unassigned) [Example 7b]",25000 nM
15,"O=C(CC1(O)CC(F)(F)C1)N[C@@H](COC1CC1)c1cccc(OC(F)(F)F)c1 [Example 28, (R)—N-(2-cyclopropoxy-1-(3-(trifluoromethoxy)phenyl)ethyl)-2-(3,3-difluoro-1-hydroxycyclobutyl)acetamide]",3200 nM
16,"O=C(CC(O)C1CCCC1)N[C@@H](COC(F)F)c1cccc(OC(F)F)c1 (single isomer, unassigned) [Example 16a]",2600 nM

# Compounds with a lower EC50, results first:
row,EC50,SMILES
1,960 nM,"CC(C)CC(C)(O)CC(=O)N[C@@H](COC(F)F)c1cccc(OC(F)F)c1 (single isomer, unassigned) [Example 13a]"
2,660 nM,"CC(O)(CC(=O)N[C@@H](COC(F)F)c1cccc(OC(F)(F)F)c1)C1(F)CC1 (single isomer, unassigned) [Example 10a]"
3,1900 nM,"CC(C)(C)[C@@H](O)CC(=O)N[C@@H](CCC#N)c1cccc(OC(F)(F)F)c1 [Example 25, (S)—N—((S)-3-cyano-1-(3-(trifluoromethoxy)phenyl)propyl)-3-hydroxy-4,4-dimethylpentanamide]"
4,940 nM,"CC(C)(C)[C@@H](O)CC(=O)N[C@@H](COC(F)(F)F)c1cccc(OC(F)(F)F)c1 [Example 19, (S)—N—((R)-1-(3-(trifluoromethoxy)phenyl)-2-(trifluoromethoxy)ethyl)-3-hydroxy-4,4-dimethylpentanamide]"
5,1500 nM,"CCC[C@H](NC(=O)C[C@H](O)C(C)(C)C)c1cccc(OC(F)F)c1 [Example 20, (S)—N—((S)-1-(3-(difluoromethoxy)phenyl)butyl)-3-hydroxy-4,4-dimethylpentanamide]"
6,1500 nM,"CC(C)(C)[C@@H](O)CC(=O)N[C@@H](COC1CC1)c1cccc(OC(F)F)c1 [Example 17, (S)—N—((R)-2-cyclopropoxy-1-(3-(difluoromethoxy)phenyl)ethyl)-3-hydroxy-4,4-dimethylpentanamide]"
7,1800 nM,"O=C(CC1(O)CC(F)(F)C1)N[C@@H](COC(F)(F)F)c1cccc(OC(F)F)c1 [Example 30, (R)-2-(3,3-difluoro-1-hydroxycyclobutyl)-N-(1-(3-(difluoromethoxy)phenyl)-2-(trifluoromethoxy)ethyl)acetamide]"
8,1200 nM,"O=C(CC(O)C1CC(F)(F)C1)N[C@@H](COC(F)F)c1cccc(OC(F)F)c1 (single isomer, unassigned) [Example 5a]"
9,1700 nM,"O=C(CC(O)C1(C(F)(F)F)CC1)N[C@@H](COC(F)F)c1cccc(OC(F)(F)F)c1 (single isomer, unassigned) [Example 4a]"
10,2300 nM,"O=C(CC1(O)CC(F)(F)C1)N[C@@H](COC(F)F)c1cccc(OC(F)(F)F)c1 [Example 27, (R)-2-(3,3-difluoro-1-hydroxycyclobutyl)-N-(2-(difluoromethoxy)-1-(3-(trifluoromethoxy)phenyl)ethyl)acetamide]"
11,1000 nM,"CC(C)(C)[C@@H](O)CC(=O)N[C@@H](CCC(F)F)c1cccc(OC(F)F)c1 [Example 21, (S)—N—((S)-1-(3-(difluoromethoxy)phenyl)-4,4-difluorobutyl)-3-hydroxy-4,4-dimethylpentanamide]"
12,1300 nM,"CC(C)C(C)(O)CC(=O)N[C@@H](COC(F)F)c1cccc(OC(F)F)c1 (single isomer, unassigned) [Example 14b]"
13,1100 nM,"O=C(CC(O)C1CC(F)(F)C1)N[C@@H](COC(F)F)c1cccc(OC(F)(F)F)c1 (single isomer, unassigned) [Example 6b]"
14,1300 nM,"CC(O)(CC(=O)N[C@@H](COC(F)F)c1cccc(OC(F)F)c1)CC(F)(F)F (single isomer, unassigned) [Example 12a]"
15,650 nM,"CC1(C)CC(C(O)CC(=O)N[C@@H](COC(F)F)c2cccc(OC(F)F)c2)C1 (single isomer, unassigned) [Example 15b]"
16,1800 nM,"CCOC[C@H](NC(=O)CC(O)C(C)(C)C)c1cccc(OC(F)(F)F)c1 (single isomer, unassigned) [Example 2b]"
17,1500 nM,"CC(O)(CC(=O)N[C@@H](COC(F)F)c1cccc(OC(F)F)c1)C1(F)CC1 (single isomer, unassigned) [Example 9a]"
18,960 nM,"O=C(CC1(O)CC(F)(F)C1)N[C@@H](COC(F)F)c1cccc(OC(F)F)c1 [Example 26, (R)-2-(3,3-difluoro-1-hydroxycyclobutyl)-N-(2-(difluoromethoxy)-1-(3-(difluoromethoxy)phenyl)ethyl)acetamide]"
